Experimental data published in ChEMBL document CHEMBL1201862, “PubChem BioAssay data set” (2004).
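Five compound concentrations were applied to cells in 96-well plates for 48 hours; endpoints were derived by simple linear interpolation of the resulting dose-response curve. The concentration for 50% growth inhibition is given as GI50.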 Calls of active or inactive are those of the source. Cut-off read from the data, not from the text of the source: active = GI50 up to about 1.1 µM and inactive = higher.

How the values were obtained:
Assay in all cases: DTP human tumour cell line panel, 48 h
DU-145 = tested on: DU-145
RPMI-8226 = tested on: RPMI-8226
SK-OV-3 = tested on: SK-OV-3
NCI-H460 = tested on: NCI-H460
UACC-257 = tested on: UACC-257
MOLT-4 = tested on: MOLT-4
OVCAR-5 = tested on: OVCAR-5
HCT-116 = tested on: HCT-116
OVCAR-3 = tested on: OVCAR-3
SK-MEL-28 = tested on: SK-MEL-28
SF-539 = tested on: SF-539
SNB-75 = tested on: SNB-75
OVCAR-4 = tested on: OVCAR-4
NCI-H226 = tested on: NCI-H226
SK-MEL-5 = tested on: SK-MEL-5
ACHN = tested on: ACHN
M14 = tested on: M14
LOX IMVI = tested on: LOX IMVI
RXF 393 = tested on: RXF 393
NCI-H23 = tested on: NCI-H23
Malme-3M = tested on: Malme-3M
K562 = tested on: K562
A498 = tested on: A498
CAKI-1 = tested on: CAKI-1
HT-29 = tested on: HT-29
COLO 205 = tested on: COLO 205
SNB-19 = tested on: SNB-19
786-0 = tested on: 786-0
PC-3 = tested on: PC-3
HCT-15 = tested on: HCT-15
SF-268 = tested on: SF-268
HOP-92 = tested on: HOP-92
Hs-578T = tested on: Hs-578T
NCI-H522 = tested on: NCI-H522
UACC-62 = tested on: UACC-62
IGROV-1 = tested on: IGROV-1
MDA-MB-231 = tested on: MDA-MB-231
HOP-62 = tested on: HOP-62
SR = tested on: SR
SF-295 = tested on: SF-295
T47D = tested on: T47D
CCRF-CEM = tested on: CCRF-CEM
SN12C = tested on: SN12C
UO-31 = tested on: UO-31
MCF7 = tested on: MCF7
NCI/ADR-RES = tested on: NCI/ADR-RES
OVCAR-8 = tested on: OVCAR-8
SK-MEL-2 = tested on: SK-MEL-2
MDA-MB-435 = tested on: MDA-MB-435
KM12 = tested on: KM12
U-251 = tested on: U-251
SW-620 = tested on: SW-620
A549 = tested on: A549
BT-549 = tested on: BT-549
EKVX = tested on: EKVX
MDA-N = tested on: MDA-N
TK-10 = tested on: TK-10
HL-60 = tested on: HL-60
HCC 2998 = tested on: HCC 2998

SMILES: COc1ccc(N2C(=O)C3c4[nH]c5ccccc5c4C4CCC(c5ccccc5)CC4C3C2=O)cc1 (stereo not drawn)
- GI50 (DU-145): 57.3 µM (inactive)
- GI50 (RPMI-8226): 18.5 µM (inactive)
- GI50 (SK-OV-3): 20.2 µM (inactive)
- GI50 (NCI-H460): 10.3 µM (inactive)
- GI50 (UACC-257): 48.4 µM (inactive)
- GI50 (MOLT-4): 26.6 µM (inactive)
- GI50 (OVCAR-5): 45.1 µM (inactive)
- GI50 (HCT-116): > 39.8 µM (inactive)
- GI50 (OVCAR-3): > 64 µM (inactive)
- GI50 (SK-MEL-28): > 54.6 µM (inactive)
- GI50 (SF-539): 1.48 µM (inactive)
- GI50 (SNB-75): 6.04 µM (inactive)
- GI50 (OVCAR-4): 8.87 µM (inactive)
- GI50 (NCI-H226): > 45.7 µM (inactive)
- GI50 (SK-MEL-5): 26.1 µM (inactive)
- GI50 (ACHN): 12.3 µM (inactive)
- GI50 (M14): 30.5 µM (inactive)
- GI50 (LOX IMVI): > 32.5 µM (inactive)
- GI50 (RXF 393): 10.2 µM (inactive)
- GI50 (NCI-H23): 19.8 µM (inactive)
- GI50 (Malme-3M): 3.38 µM (inactive)
- GI50 (K562): 11.2 µM (inactive)
- GI50 (A498): 29 µM (inactive)
- GI50 (CAKI-1): 17.4 µM (inactive)
- GI50 (HT-29): > 57.5 µM (inactive)
- GI50 (COLO 205): > 40.4 µM (inactive)
- GI50 (SNB-19): 12.5 µM (inactive)
- GI50 (786-0): 7.76 µM (inactive)
- GI50 (PC-3): 36.2 µM (inactive)
- GI50 (HCT-15): 36 µM
- GI50 (SF-268): 10.4 µM (inactive)
- GI50 (HOP-92): 16.1 µM (inactive)
- GI50 (Hs-578T): 5.74 µM (inactive)
- GI50 (NCI-H522): 10.2 µM (inactive)
- GI50 (UACC-62): 24.8 µM (inactive)
- GI50 (IGROV-1): 30.8 µM (inactive)
- GI50 (MDA-MB-231): 10.9 µM (inactive)
- GI50 (HOP-62): 7.28 µM (inactive)
- GI50 (SR): 0.424 µM (active)
- GI50 (SF-295): 22.9 µM (inactive)
- GI50 (T47D): > 66.4 µM (inactive)
- GI50 (CCRF-CEM): 6 µM (inactive)
- GI50 (SN12C): 28.5 µM (inactive)
- GI50 (UO-31): 46.8 µM (inactive)
- GI50 (MCF7): 39 µM (inactive)
- GI50 (NCI/ADR-RES): > 34.2 µM (inactive)
- GI50 (OVCAR-8): 17.3 µM (inactive)
- GI50 (SK-MEL-2): 23.4 µM (inactive)
- GI50 (MDA-MB-435): > 50.5 µM (inactive)
- GI50 (KM12): > 70.5 µM (inactive)
- GI50 (U-251): 5.92 µM (inactive)
- GI50 (SW-620): > 32.7 µM (inactive)
- GI50 (A549): 26.5 µM (inactive)
- GI50 (BT-549): 31.4 µM (inactive)
- GI50 (EKVX): 25.1 µM (inactive)
- GI50 (MDA-N): 52.8 µM (inactive)
- GI50 (TK-10): 12.8 µM (inactive)

SMILES: Cc1nc(-c2cc3ccccc3oc2=O)cs1
- GI50 (DU-145): > 100 µM (inactive)
- GI50 (RPMI-8226): > 100 µM (inactive)
- GI50 (SK-OV-3): > 100 µM (inactive)
- GI50 (NCI-H460): > 100 µM (inactive)
- GI50 (UACC-257): > 100 µM (inactive)
- GI50 (MOLT-4): > 100 µM (inactive)
- GI50 (OVCAR-5): > 100 µM (inactive)
- GI50 (HCT-116): 96.2 µM (inactive)
- GI50 (SK-MEL-28): > 100 µM (inactive)
- GI50 (SF-539): 70 µM (inactive)
- GI50 (SNB-75): < 0.01 µM (active)
- GI50 (OVCAR-4): > 100 µM (inactive)
- GI50 (NCI-H226): 30.3 µM (inactive)
- GI50 (SK-MEL-5): > 100 µM (inactive)
- GI50 (ACHN): 52.5 µM (inactive)
- GI50 (M14): > 100 µM (inactive)
- GI50 (LOX IMVI): > 100 µM (inactive)
- GI50 (RXF 393): 38.2 µM (inactive)
- GI50 (Malme-3M): 7.23 µM (inactive)
- GI50 (K562): > 100 µM (inactive)
- GI50 (CAKI-1): > 100 µM (inactive)
- GI50 (HT-29): > 100 µM (inactive)
- GI50 (COLO 205): > 100 µM (inactive)
- GI50 (SNB-19): 40.6 µM (inactive)
- GI50 (786-0): 34 µM (inactive)
- GI50 (PC-3): > 100 µM (inactive)
- GI50 (HCT-15): > 100 µM
- GI50 (SF-268): 42.9 µM (inactive)
- GI50 (HL-60): > 100 µM (inactive)
- GI50 (HOP-92): 19 µM (inactive)
- GI50 (Hs-578T): 18.4 µM (inactive)
- GI50 (NCI-H522): 17 µM (inactive)
- GI50 (UACC-62): 31.3 µM (inactive)
- GI50 (IGROV-1): 17.1 µM (inactive)
- GI50 (MDA-MB-231): 25.1 µM (inactive)
- GI50 (HOP-62): 16.6 µM (inactive)
- GI50 (SR): 59 µM (inactive)
- GI50 (HCC 2998): > 100 µM (inactive)
- GI50 (SF-295): 35.5 µM (inactive)
- GI50 (T47D): > 100 µM (inactive)
- GI50 (CCRF-CEM): > 100 µM (inactive)
- GI50 (SN12C): > 100 µM (inactive)
- GI50 (UO-31): > 100 µM (inactive)
- GI50 (MCF7): > 100 µM (inactive)
- GI50 (NCI/ADR-RES): 78.5 µM (inactive)
- GI50 (OVCAR-8): 47 µM (inactive)
- GI50 (SK-MEL-2): 85.3 µM (inactive)
- GI50 (MDA-MB-435): > 100 µM (inactive)
- GI50 (KM12): > 100 µM (inactive)
- GI50 (U-251): 32 µM (inactive)
- GI50 (SW-620): > 100 µM (inactive)
- GI50 (A549): > 100 µM (inactive)
- GI50 (BT-549): 15.9 µM (inactive)
- GI50 (EKVX): 34.2 µM (inactive)
- GI50 (MDA-N): > 100 µM (inactive)
- GI50 (TK-10): 37.4 µM (inactive)
